This passage reports IC50 and Emax results from patent US11945836B2, “Compositions and methods for treating CNS disorders” (Sage Therapeutics, Inc., priority 2014, dated 2024).

For the first assay, the target named is rat brain cortical membranes ([35S]-TBPS binding). Briefly: Steroid inhibition of [35S]-TBPS binding (radioligand displacement). The settings on record: 3 nM [35S]-TBPS, in the presence of 5 μM GABA. How it is done: Steroid Inhibition of TBPS Binding
TBPS binding assays using rat brain cortical membranes in the presence of 5 μM GABA has been described (Gee et al, J. Pharmacol. Exp. Ther. 1987, 241, 346-353; Hawkinson et al, Mol. Pharmacol. 1994, 46, 977-985; Lewin, A. H et al., Mol. Pharmacol. 1989, 35, 189-194).
Briefly, cortices are rapidly removed following decapitation of carbon dioxide-anesthetized Sprague-Dawley rats (200-250 g). The cortices are homogenized in 10 volumes of ice-cold 0.32 M sucrose using a glass/teflon homogenizer and centrifuged at 1500×g for 10 min at 4° C. The resultant supernatants are centrifuged at 10,000×g for 20 min at 4° C. to obtain the P2 pellets. The P2 pellets are resuspended in 200 mM NaCl/50 mM Na—K phosphate pH 7.4 buffer and centrifuged at 10,000×g for 10 min at 4° C. This washing procedure is repeated twice and the pellets are resuspended in 10 volumes of buffer. Aliquots (100 uL) of the membrane suspensions are incubated with 3 nM [^35S]-TBPS and 5 μL aliquots of test drug dissolved in dimethyl sulfoxide (DMSO) (final 0.5%) in the presence of 5 μM GABA. The incubation is brought to a final volume of 1.0 mL with buffer. […] Following a 90 min incubation at room temp, the assays are terminated by filtration through glass fiber filters (Schleicher and Schuell No. 32) using a cell harvester (Brandel) and rinsed three times with ice-cold buffer. Filter bound radioactivity is measured by liquid scintillation spectrometry. Non-linear curve fitting of the overall data for each drug averaged for each concentration is done using Prism (GraphPad). […] The concentration of test compound producing 50% inhibition (IC50) of specific binding and the maximal extent of inhibition (Imax) are determined for the individual experiments with the same model used for the overall data and then the means±SEMs of the individual experiments are calculated.
Various compounds are or can be screened to determine their potential as modulators of [^35S]-TBPS binding in vitro. These assays are or can be performed in accordance with the above discussed procedures.
For orientation: Displacement assays read how much labelled ligand stays bound in the presence of the test substance.
`C[C@@]1(O)CC[C@H]2[C@H](CC[C@@H]3[C@@H]2CC[C@]2(C)[C@@H](C(=O)c4nc5ccccc5s4)CC[C@@H]32)C1` [Compound 8]: the IC50 (in general, the concentration that gives 50% inhibition) was above 100 nM.

Consider `CSc1ccc(C(=O)[C@H]2CC[C@H]3[C@@H]4CC[C@@H]5C[C@](C)(O)CC[C@]5(C)[C@H]4CC[C@]23C)cc1` [Compound 48], for which the IC50 fell in the range of 20 to 50 nM.

`COc1cc(OC)cc(C(=O)[C@H]2CC[C@H]3[C@@H]4CC[C@@H]5C[C@](C)(O)CC[C@]5(C)[C@H]4CC[C@]23C)c1` [Compound 21]: the IC50 is above 100 nM.

As to `C[C@@]1(O)CC[C@@]2(C)[C@@H](CC[C@@H]3[C@@H]2CC[C@]2(C)[C@@H](C(=O)c4ccc(Cl)cc4)CC[C@@H]32)C1` [Compound 81], the IC50 was above 100 nM.

For `COC[C@]12CC[C@@](C)(O)C[C@@H]1CC[C@H]1[C@@H]3CC[C@H](C(=O)c4cccc(OC)c4)[C@@]3(C)CC[C@@H]12` [Compound 106], the IC50 was above 100 nM.

As to `Cc1cccc(C(=O)[C@H]2CC[C@H]3[C@@H]4CC[C@@H]5C[C@](C)(O)CC[C@]5(C)[C@H]4CC[C@]23C)c1` [Compound 73], the IC50 is 50 to 100 nM.

In the case of `COc1ccc(C(=O)[C@H]2CC[C@H]3[C@@H]4CC[C@@H]5C[C@](C)(O)CC[C@]5(C)[C@H]4CC[C@]23C)c(C)c1` [Compound 33], the IC50 is above 100 nM.

On to `Cn1ncc(C(=O)[C@H]2CC[C@H]3[C@@H]4CC[C@@H]5C[C@](C)(O)CC[C@@H]5[C@H]4CC[C@]23C)n1` [Compound 99], for which the IC50 is above 100 nM.

Regarding `C[C@@]1(O)CC[C@@]2(C)[C@@H](CC[C@@H]3[C@@H]2CC[C@]2(C)[C@@H](C(=O)c4ccc5c(c4)OCO5)CC[C@@H]32)C1` [Compound 133], the IC50 is above 100 nM.

`COC[C@]12CC[C@@](C)(O)C[C@@H]1CC[C@H]1[C@@H]3CC[C@H](C(=O)c4ccc(C)c(C)c4)[C@@]3(C)CC[C@@H]12` [Compound 95]: the IC50 was above 100 nM.

On to `C[C@@]1(O)CC[C@H]2[C@H](CC[C@@H]3[C@@H]2CC[C@]2(C)[C@@H](C(=O)c4csc5ccccc45)CC[C@@H]32)C1` [Compound 11], for which the IC50 lay in the range of 20 to 50 nM.

Turning to `COc1ccccc1C(=O)[C@H]1CC[C@H]2[C@@H]3CC[C@@H]4C[C@](C)(O)CC[C@]4(C)[C@H]3CC[C@]12C` [Compound 53], the IC50 is above 100 nM.

Regarding `C[C@@]1(O)CC[C@H]2[C@H](CC[C@@H]3[C@@H]2CC[C@]2(C)[C@@H](C(=O)c4ccccc4)CC[C@@H]32)C1` [Compound 1], the half-inhibitory concentration (IC50) is below 20 nM.

With `Cc1ccc(C(=O)[C@H]2CC[C@H]3[C@@H]4CC[C@H]5C[C@](C)(O)CC[C@]5(C)[C@H]4CC[C@]23C)cc1` [Compound 75], the concentration for half-maximal inhibition (IC50) was above 100 nM.

`CCc1ccc(C(=O)[C@H]2CC[C@H]3[C@@H]4CC[C@@H]5C[C@](C)(O)CC[C@@H]5[C@H]4CC[C@]23C)cc1` [Compound 42]: the IC50 was below 20 nM.

For the molecule `Cc1ccc(C(=O)[C@H]2CC[C@H]3[C@@H]4CC[C@H]5C[C@](C)(O)CC[C@]5(C)[C@H]4CC[C@]23C)cc1F` [Compound 45], the IC50 was above 100 nM.

Take `C[C@@]1(O)CC[C@@]2(C)[C@@H](CC[C@@H]3[C@@H]2CC[C@]2(C)[C@@H](C(=O)c4ccc(F)cc4)CC[C@@H]32)C1` [Compound 79]: the IC50 is above 100 nM.

In the case of `COC[C@]12CC[C@@](C)(O)C[C@@H]1CC[C@H]1[C@@H]3CC[C@H](C(=O)c4cccc(Cl)c4)[C@@]3(C)CC[C@@H]12` [Compound 110], the half-maximal inhibitory concentration (IC50) was 50 to 100 nM.

Turning to `C[C@@]1(O)CC[C@H]2[C@@H](CC[C@@H]3[C@@H]2CC[C@]2(C)[C@@H](C(=O)c4ccc(-c5ccccc5)cc4)CC[C@@H]32)C1` [Compound 58], the IC50 was 50 to 100 nM.

On to `C[C@@]1(O)CC[C@@]2(C)[C@@H](CC[C@@H]3[C@@H]2CC[C@]2(C)[C@@H](C(=O)c4ccccc4-c4ccccc4)CC[C@@H]32)C1` [Compound 127], for which the IC50 is above 100 nM.

Regarding `C[C@@]1(O)CC[C@H]2[C@H](CC[C@@H]3[C@@H]2CC[C@]2(C)[C@@H](C(=O)c4ccc(Cl)cc4)CC[C@@H]32)C1` [Compound 52], the IC50 fell in the range of 20 to 50 nM.

For `C[C@@]1(O)CC[C@@]2(C)[C@H](CC[C@@H]3[C@@H]2CC[C@]2(C)[C@@H](C(=O)c4ccc(OC(F)(F)F)cc4)CC[C@@H]32)C1` [Compound 47], the half-inhibitory concentration (IC50) lay within 20 to 50 nM.

As for `C[C@@]1(O)CC[C@H]2[C@H](CC[C@@H]3[C@@H]2CC[C@]2(C)[C@@H](C(=O)c4ccc(OC(F)(F)F)cc4)CC[C@@H]32)C1` [Compound 34], the IC50 is below 20 nM.

As to `C[C@@]1(O)CC[C@@]2(C)[C@@H](CC[C@@H]3[C@@H]2CC[C@]2(C)[C@@H](C(=O)c4cc(F)cc(F)c4)CC[C@@H]32)C1` [Compound 37], the IC50 fell in the range of 50 to 100 nM.

With `COC[C@]12CC[C@@](C)(O)C[C@@H]1CC[C@H]1[C@@H]3CC[C@H](C(=O)c4ccc(N(C)C)cc4)[C@@]3(C)CC[C@@H]12` [Compound 109], the IC50 is above 100 nM.

Consider `COC[C@]12CC[C@@](C)(O)C[C@@H]1CC[C@H]1[C@@H]3CC[C@H](C(=O)c4ccc(OC)cc4C)[C@@]3(C)CC[C@@H]12` [Compound 96], for which the IC50 was above 100 nM.

Take `C[C@@]1(O)CC[C@H]2[C@H](CC[C@@H]3[C@@H]2CC[C@]2(C)[C@@H](C(=O)c4cccs4)CC[C@@H]32)C1` [Compound 4]: the IC50 was 20 to 50 nM.

As to `Cc1ccc(C(=O)[C@H]2CC[C@H]3[C@@H]4CC[C@@H]5C[C@](C)(O)CC[C@]5(C)[C@H]4CC[C@]23C)cc1C` [Compound 17], the half-maximal inhibitory concentration (IC50) lay within 50 to 100 nM.

Consider `C[C@@]1(O)CC[C@@]2(C)[C@H](CC[C@@H]3[C@@H]2CC[C@]2(C)[C@@H](C(=O)c4cc(F)cc(F)c4)CC[C@@H]32)C1` [Compound 23], for which the IC50 is 50 to 100 nM.

Turning to `COC[C@]12CC[C@@](C)(O)C[C@@H]1CC[C@H]1[C@@H]3CC[C@H](C(=O)c4ccc(C)cc4)[C@@]3(C)CC[C@@H]12` [Compound 92], the IC50 was above 100 nM.

The target in another assay is T1, GABAA receptors α1β2γ2 (Homo sapiens, UniProt P14867+P47870).
T1 construct: expressed in transfected cells; host or cells: LTK (Ltk) cells, stably transfected
T1 sequence (P14867 28-456): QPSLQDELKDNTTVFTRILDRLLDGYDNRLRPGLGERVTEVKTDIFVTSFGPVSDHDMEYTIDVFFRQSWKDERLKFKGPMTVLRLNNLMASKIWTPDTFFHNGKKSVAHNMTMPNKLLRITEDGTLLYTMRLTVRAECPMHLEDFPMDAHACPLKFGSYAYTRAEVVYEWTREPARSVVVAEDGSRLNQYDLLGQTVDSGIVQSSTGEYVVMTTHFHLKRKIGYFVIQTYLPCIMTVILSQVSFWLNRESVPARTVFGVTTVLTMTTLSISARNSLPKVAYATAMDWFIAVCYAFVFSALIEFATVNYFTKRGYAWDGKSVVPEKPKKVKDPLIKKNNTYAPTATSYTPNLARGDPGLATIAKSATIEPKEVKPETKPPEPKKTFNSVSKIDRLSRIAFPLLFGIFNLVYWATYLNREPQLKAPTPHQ
T1 sequence (P47870 25-512 limits assumed): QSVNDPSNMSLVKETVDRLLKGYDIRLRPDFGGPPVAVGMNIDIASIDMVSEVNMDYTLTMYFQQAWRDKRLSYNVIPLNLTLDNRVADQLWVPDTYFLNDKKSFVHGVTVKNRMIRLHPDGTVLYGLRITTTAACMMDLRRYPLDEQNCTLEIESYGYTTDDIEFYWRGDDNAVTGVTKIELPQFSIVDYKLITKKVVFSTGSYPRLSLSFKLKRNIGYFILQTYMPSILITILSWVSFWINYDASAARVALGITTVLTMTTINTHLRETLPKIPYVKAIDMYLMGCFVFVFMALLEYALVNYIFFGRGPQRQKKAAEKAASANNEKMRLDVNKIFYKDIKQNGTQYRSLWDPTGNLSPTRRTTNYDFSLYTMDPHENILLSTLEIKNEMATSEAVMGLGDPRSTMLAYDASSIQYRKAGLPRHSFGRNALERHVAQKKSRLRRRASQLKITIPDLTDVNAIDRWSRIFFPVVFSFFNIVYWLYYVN
T1 sequence (P18507 40-475 partner): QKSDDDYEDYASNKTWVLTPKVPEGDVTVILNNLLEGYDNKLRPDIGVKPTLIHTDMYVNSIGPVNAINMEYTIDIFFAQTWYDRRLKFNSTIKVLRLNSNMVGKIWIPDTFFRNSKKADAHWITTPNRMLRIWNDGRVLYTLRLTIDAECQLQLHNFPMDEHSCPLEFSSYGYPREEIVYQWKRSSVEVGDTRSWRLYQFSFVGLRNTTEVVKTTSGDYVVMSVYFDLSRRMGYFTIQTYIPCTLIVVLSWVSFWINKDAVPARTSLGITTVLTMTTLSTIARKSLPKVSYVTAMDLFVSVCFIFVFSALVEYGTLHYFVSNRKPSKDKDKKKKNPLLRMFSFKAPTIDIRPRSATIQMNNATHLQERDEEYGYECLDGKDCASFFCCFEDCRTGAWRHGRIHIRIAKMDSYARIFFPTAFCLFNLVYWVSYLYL
Briefly: Patch clamp electrophysiology (QPatch) of recombinant GABAA receptors in Ltk cells. It is filed as cell-based. As to conditions: 10 μM test article, 2 μM GABA (EC20), Ltk cells stably transfected with α1β2γ2, relative percentage potentiation; read-out: GABA (α1β2γ2) Qpatch in Ltk, % efficacy at 10 μM. The method, then: Patch Clamp Electrophysiology of Recombinant α1β2γ2 and α4β3δ GABAA Receptors
Cellular electrophysiology is used to measure the pharmacological properties of our GABAA receptor modulators in heterologous cell systems. Each compound is tested for its ability to affect GABA mediated currents at a submaximal agonist dose (GABA EC20=2 μM). LTK cells are stably transfected with the α1β2γ2 subunits of the GABA receptor and CHO cells are transiently transfected with the α4β3δ subunits via the Lipofecatamine method. Cells were passaged at a confluence of about 50-80% and then seeded onto 35 mm sterile culture dishes containing 2 ml culture complete medium without antibiotics or antimycotics. Confluent clusters of cells are electrically coupled (Pritchett et al., Science, 1988, 242, 1306-1308). Because responses in distant cells are not adequately voltage clamped and because of uncertainties about the extent of coupling (Verdoorn et al., Neuron 1990, 4, 919-928), cells were cultivated at a density that enables the recording of single cells (without visible connections to other cells).
Whole cell currents were measured with HEKA EPC-10 amplifiers using PatchMaster software or by using the high throughput QPatch platform (Sophion). Bath solution for all experiments contained (in mM): NaCl 137 mM, KCl 4 mM, CaCl2 1.8 mM, MgCl2 1 mM, HEPES 10 mM, D-Glucose 10 mM, pH (NaOH) 7.4. […]
(In patch-clamp work, channel activity is measured electrically.)
`C[C@@]1(O)CC[C@H]2[C@H](CC[C@@H]3[C@@H]2CC[C@]2(C)[C@@H](C(=O)c4nc5ccccc5s4)CC[C@@H]32)C1` [Compound 8]: the Emax at 10 µM was 100 to 500%.

Consider `C[C@@]1(O)CC[C@H]2[C@H](CC[C@@H]3[C@@H]2CC[C@]2(C)[C@@H](C(=O)c4ccccc4)CC[C@@H]32)C1` [Compound 1], for which the Emax at 10 µM was above 500%.
